Laboratory results published in patent publication US7566528B2, “Method for the identification and/or validation of receptor tyrosine kinase inhibitors” (Esbatech AG, priority 2003, dated 2009).
Entries after “also recorded” stand apart in the source; their conditions may differ. Where a name gives a salt, the structure may show the parent alone.

Assays:
[1] = target: T1, human receptor tyrosine kinase PDGFR-β (Homo sapiens, UniProt P09619); experiment: Yeast growth restoration assay, cells expressing PDGFR-β (OD 600 nm); type: cell-based; details: 50 μM in the yeast culture; OD 600 nm light scattering; FIG. 3
T1 construct: N-terminus of the cytoplasmic domains of c-Met (AA932-1366) and PDGFRβ (AA524-1067); myristoylation signal (membrane anchoring) (N); expressed in transfected cells; host or cells: yeast (S. cerevisiae preferred)
Excerpt: (§1) Selection of specific inhibition of Receptor Tyrosine Kinase activity in yeast.

[2] = test system: human receptor tyrosine kinase RET; experiment: Yeast growth restoration assay, cells expressing RET (OD 600 nm); type: cell-based; details: 50 μM in the yeast culture; OD 600 nm light scattering; FIG. 3
Excerpt: as §1

T1 sequence (P09619 556-1099): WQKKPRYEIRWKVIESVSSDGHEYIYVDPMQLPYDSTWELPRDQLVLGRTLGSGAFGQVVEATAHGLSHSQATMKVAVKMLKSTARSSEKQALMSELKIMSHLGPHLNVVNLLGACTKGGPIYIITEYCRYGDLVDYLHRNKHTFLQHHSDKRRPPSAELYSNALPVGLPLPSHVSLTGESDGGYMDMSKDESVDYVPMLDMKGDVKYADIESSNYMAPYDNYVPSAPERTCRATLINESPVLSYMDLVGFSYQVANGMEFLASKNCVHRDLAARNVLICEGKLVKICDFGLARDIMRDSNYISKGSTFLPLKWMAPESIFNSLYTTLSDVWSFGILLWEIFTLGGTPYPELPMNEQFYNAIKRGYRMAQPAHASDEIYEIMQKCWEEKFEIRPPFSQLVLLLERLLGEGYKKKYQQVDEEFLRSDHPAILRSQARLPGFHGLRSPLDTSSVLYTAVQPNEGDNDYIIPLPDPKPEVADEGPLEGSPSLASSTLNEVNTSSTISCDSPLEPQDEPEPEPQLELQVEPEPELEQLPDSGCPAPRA

Cc1ccc(NC(=O)c2ccc(CN3CCN(C)CC3)cc2)cc1Nc1nccc(-c2cccnc2)n1 [imatinib mesylate]
restoration of growth of PDGFR-β-expressing yeast cells [1]: restore growth under selective conditions; also recorded: specifically restores growth
restoration of growth of RET-expressing yeast cells [2]: not growth of cells expressing RET
